In assay [1] the test system is Pseudomonas aeruginosa. Put plainly: Antibiofilm activity against Pseudomonas aeruginosa ATCC 27853 at 0.5 mg/ml measured after 24 hrs by crystal violet staining based assay relative to control. The format is functional.
The test system of assay [2] is Staphylococcus aureus. As to the kind of experiment: Antibiofilm activity against Staphylococcus aureus USA300 assessed as inhibition of biofilm formation at 256 ug/ml measured after 24 hrs by crystal violet staining based assay relative to control. The format is functional. Also noted: scale not given: the % may be the effect or the level left. The settings on record: dose 256 µg/ml.

For assay [3], the target named is Sortase A (Staphylococcus aureus, UniProt Q9S446). As to the kind of experiment: Inhibition of Staphylococcus aureus ATCC 6538p Sortase A protease expressed in Escherichia coli BL21 expression system using Dabcyl-QALPETGEE-Edans as substrate incubated for 1 hr by FRET assay.
The test system of assay [4] is Pseudomonas aeruginosa. Put plainly: Inhibition of Pseudomonas aeruginosa PAO1 Pyocyanin at 64 to 256 ug/ml by spectrophotometrical analysis relative to control. The conditions noted are these: dose 64-256 µg/ml.
Assay [5] concerns Burkholderia cepacia. As to the kind of experiment: In vivo antibacterial activity against Burkholderia cepacia LMG 16656 infected in BALB/C mouse assessed as reduction in bacterial load in lung at 2 mg/kg, INH administered for 24 to 48 hr post bacterial infection and measured after 3 days post compound treatment in presence of tobramycin relative to control. The format is functional. Also noted: scale not given: the % may be the effect or the level left. The settings on record: time 3 day.

Assay [6] concerns the target Elastase (Pseudomonas aeruginosa (strain ATCC 15692 / PAO1 / 1C / PRS 101 / LMG12228)) (UniProt P14756). As to the kind of experiment: Inhibition of Pseudomonas aeruginosa PAO1 LasB elastase at 64 to 256 ug/ml incubated for 16 hrs by elastin Congo red (ECR) assay relative to control. The settings on record: dose 64-256 µg/ml.
A short description of assay [7]: Inhibition of AHL-mediated quorum sensing system in Pseudomonas aeruginosa PAO1 assessed as decrease in C4-HSL levels at 64 ug/ml by HPLC/MS analysis relative to control. The settings on record: dose 64.0 µg/ml.
The target of assay [8] is 3-(3-hydroxydecanoyloxy)decanoate synthase (Pseudomonas aeruginosa (strain ATCC 15692 / PAO1 / 1C / PRS 101 / LMG12228)) (UniProt Q51559). As to the kind of experiment: Inhibition of Pseudomonas aeruginosa PAO1 Rhamnolipid at 64 to 256 ug/ml by spectrophotometrical analysis relative to control. The conditions noted are these: dose 64-256 µg/ml.
Assay [9] deals with Pseudomonas aeruginosa. Put plainly: Antibiofilm activity against Pseudomonas aeruginosa PAO1 assessed as reduction in bacterial growth by crystal violet staining based assay. Type of assay: functional.
For assay [10], the target named is Protease LasA (Pseudomonas aeruginosa) (UniProt P14789). Put plainly: Inhibition of Pseudomonas aeruginosa PAO1 LasA protease at 64 to 256 ug/ml using azocasein as substrate incubated for 24 hrs by spectrophotometrical analysis relative to control. The conditions noted are these: dose 64-256 µg/ml.
Assay [11] concerns Pseudomonas aeruginosa. As to the kind of experiment: Antibacterial activity against Pseudomonas aeruginosa PAO1 NCTC 10332 assessed as inhibition of biofilm formation at 100 ug/ml incubated for 24 hrs by crystal violet staining based analysis relative to control. Type of assay: functional. On the set-up: scale not given: the % may be the effect or the level left. The settings on record: dose 100 µg/ml.

The subject of assay [12] is Pseudomonas aeruginosa. Put plainly: Antibacterial activity against Pseudomonas aeruginosa PAO1 NCTC 10332 assessed as inhibition of biofilm dispersion incubated for 24 hrs by crystal violet staining based analysis. The format is functional, organism-based. The conditions noted are these: PAO1 NCTC 10332, 24 h.
For assay [13], the system named is Pseudomonas aeruginosa. Put plainly: Antibacterial activity against Pseudomonas aeruginosa PAO1 NCTC 10332 assessed as inhibition of biofilm formation incubated for 24 hrs by crystal violet staining based analysis. The format is functional, organism-based. The settings on record: PAO1 NCTC 10332, 24 h.
The subject of assay [14] is Serratia marcescens. Put plainly: Antibacterial activity against Serratia marcescens ATCC 27117 assessed as inhibition of biofilm formation at 50 ug/ml incubated for 24 hrs by crystal violet staining based analysis relative to control. The format is functional. On the set-up: scale not given: the % may be the effect or the level left. The conditions noted are these: dose 50 µg/ml.

Assay [15] has as its system Escherichia coli. As to the kind of experiment: Antibiofilm activity against Escherichia coli UTI89. Type of assay: functional, organism-based.
The target of assay [16] is Type 1 fimbrin D-mannose specific adhesin (Escherichia coli K-12) (UniProt P08191). As to the kind of experiment: Inhibition of Escherichia coli UTI89 FimH by hemagglutination assay.
Assay [17] has as its system Streptococcus mutans. As to the kind of experiment: Prevention of Streptococcus mutans adherence at 0.1 mg/ml relative to control. Type of assay: functional.
Assay [18] in a line: Binding affinity to Lactobacillus reuteri Glucosyltransferase assessed as dissociation constant by SPR analysis. On the set-up: species or system Limosilactobacillus reuteri. A general note: In SPR one partner is held on a chip, and binding of the other changes the refractive index at the surface.
The test system of assay [19] is Porphyromonas gingivalis. As to the kind of experiment: Antibacterial activity Porphyromonas gingivalis ATCC 33277 assessed as bacterial growth inhibition incubated for 24 hrs by broth dilution assay. Type of assay: functional. A general note: Dilution methods test growth across graded concentrations, often in twofold steps.
For assay [20], the system named is Pseudomonas aeruginosa. As to the kind of experiment: Antibacterial activity against Pseudomonas aeruginosa MTCC 2488 biofilm at 410 ug/ml incubated for 24 hrs by congo red binding assay. Type of assay: functional. The settings on record: dose 410 µg/ml.
For assay [21], the system named is Pseudomonas aeruginosa. As to the kind of experiment: Potentiation of tetracyclin-induced antibacterial activity against Pseudomonas aeruginosa MTCC 2488 biofilm at 410 ug/ml incubated for 24 hrs pretreated with compound followed by tetracyclin addition by congo red binding assay. The format is functional. The settings on record: dose 410 µg/ml.
The subject of assay [22] is Aggregatibacter actinomycetemcomitans. Put plainly: Antibacterial activity Actinobacillus actinomycetemcomitans ATCC 700685 assessed as bacterial growth inhibition incubated for 24 hrs by broth dilution assay. Type of assay: functional.
The subject of assay [23] is Pseudomonas aeruginosa. As to the kind of experiment: Potentiation of ciprofloxacin-induced antibacterial activity against Pseudomonas aeruginosa MTCC 2488 biofilm at 410 ug/ml incubated for 24 hrs pretreated with compound followed by ciprofloxacin addition by congo red binding assay. The conditions noted are these: dose 410 µg/ml. The format is functional.
Assay [24] relates to Escherichia coli. Put plainly: Antibiofilm activity against Escherichia coli UTI89 at 2.5 ug/ml incubated for 72 hrs by crystal violet staining based assay relative to control. The format is functional. The settings on record: dose 2.5 µg/ml.

≈ marks a conversion by molar mass, not a printed value. Bounds are passed on as bounds.

Sequence of Type 1 fimbrin D-mannose specific adhesin (Escherichia coli K-12) (P08191 whole entry): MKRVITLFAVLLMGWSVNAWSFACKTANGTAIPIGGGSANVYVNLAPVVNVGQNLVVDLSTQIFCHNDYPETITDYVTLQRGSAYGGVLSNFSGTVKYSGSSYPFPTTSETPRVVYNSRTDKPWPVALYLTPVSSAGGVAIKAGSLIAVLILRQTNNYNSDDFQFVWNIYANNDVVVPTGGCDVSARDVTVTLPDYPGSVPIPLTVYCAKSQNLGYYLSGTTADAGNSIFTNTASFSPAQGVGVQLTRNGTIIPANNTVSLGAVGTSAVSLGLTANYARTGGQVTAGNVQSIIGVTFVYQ
Sequence of Sortase A (Q9S446 whole entry): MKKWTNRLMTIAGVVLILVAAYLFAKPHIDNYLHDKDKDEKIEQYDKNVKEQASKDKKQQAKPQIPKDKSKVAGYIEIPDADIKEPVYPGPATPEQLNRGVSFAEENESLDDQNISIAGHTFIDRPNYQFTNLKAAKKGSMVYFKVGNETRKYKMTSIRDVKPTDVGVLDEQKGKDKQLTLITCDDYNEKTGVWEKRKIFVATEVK
Sequence of Elastase (Pseudomonas aeruginosa (strain ATCC 15692 / PAO1 / 1C / PRS 101 / LMG12228)) (P14756 198-498 limits assumed): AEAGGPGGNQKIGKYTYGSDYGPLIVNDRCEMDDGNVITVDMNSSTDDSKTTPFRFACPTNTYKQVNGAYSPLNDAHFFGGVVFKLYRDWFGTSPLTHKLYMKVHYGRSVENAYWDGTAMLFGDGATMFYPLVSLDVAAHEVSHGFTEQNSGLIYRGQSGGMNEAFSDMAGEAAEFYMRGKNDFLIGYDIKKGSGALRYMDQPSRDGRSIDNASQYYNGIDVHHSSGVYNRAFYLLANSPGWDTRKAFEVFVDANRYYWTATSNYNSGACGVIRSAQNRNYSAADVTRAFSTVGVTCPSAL
Sequence of Protease LasA (Pseudomonas aeruginosa) (P14789 whole entry): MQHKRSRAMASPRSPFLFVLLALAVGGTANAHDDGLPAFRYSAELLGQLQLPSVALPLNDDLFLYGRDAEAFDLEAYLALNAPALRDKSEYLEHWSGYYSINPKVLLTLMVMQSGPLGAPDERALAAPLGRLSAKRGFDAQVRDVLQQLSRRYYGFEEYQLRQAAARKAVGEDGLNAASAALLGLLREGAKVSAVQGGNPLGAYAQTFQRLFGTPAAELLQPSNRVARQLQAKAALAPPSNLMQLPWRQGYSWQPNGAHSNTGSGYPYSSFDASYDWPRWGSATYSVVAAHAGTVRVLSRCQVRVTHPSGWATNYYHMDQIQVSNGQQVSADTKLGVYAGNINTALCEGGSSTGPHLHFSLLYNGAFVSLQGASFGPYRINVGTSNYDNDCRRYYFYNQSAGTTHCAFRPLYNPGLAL

In the case of `CC(=O)O[C@@H]1[C@H](O[C@H]2CC[C@H](C)[C@@]3(C)C[C@@H](/C(C)=C/CC=C(C)C)CC[C@H]23)OC[C@@H](OC(C)=O)[C@H]1OC(C)=O`, the Activity in assay [1] is recorded as 60%.
Take `O=c1cc(-c2ccc(O)cc2)oc2cc(O)c([C@@H]3O[C@H](CO)[C@@H](O)[C@H](O)[C@H]3O)c(O)c12` [ISOVITEXIN]: the Activity in assay [2] was found to be 61%.
As a reminder, the IC50 is the point on the concentration scale where inhibition reaches its midpoint. Turning to `CC[C@H](CCC(C)[C@H]1CC[C@H]2[C@@H]3CCC4C[C@@H](O[C@@H]5O[C@H](CO)[C@@H](O)[C@H](O)[C@H]5O)CC[C@]4(C)[C@H]3CC[C@]12C)C(C)C` (some centres undefined), in assay [3], the IC50 was 31.6 µM.
Broadly, the inhibition is the drop in the measured response relative to a control, in per cent. Consider `O=C(O)[C@H]1O[C@@H](Oc2cc3oc(-c4ccccc4)cc(=O)c3c(O)c2O)[C@H](O)[C@@H](O)[C@@H]1O` [BAICALIN], for which the inhibition in assay [4] was 61.7%; in assay [6] it was 77.1%; in [7], 77.2%; in assay [8], 45.1%; in assay [10], 48.6%. The Activity in assay [5] came out at 99%. In assay [9], the MIC was more than 1020 µg/mL.
Regarding `CCCCCCC[C@H](CC(=O)N1CCOCC1)OC(=O)C[C@@H](CCCCCCC)O[C@@H]1O[C@@H](C)[C@H](O)[C@@H](O)[C@H]1O[C@@H]1O[C@@H](C)[C@H](O)[C@@H](O)[C@H]1O`, the figures for the Activity in assay [11] and in assay [14] were 90% and more than 80%, respectively. For the same compound, the IC50 in assay [12] was 10 µg/mL (≈ 13.9 µM); in assay [13], 12.5 µg/mL (≈ 17.4 µM).
The compound `Cc1cc(-c2ccc3ccn(CC(=O)Nc4cccnc4)c(=O)c3c2)ccc1O[C@H]1O[C@H](CO)[C@@H](O)[C@H](O)[C@@H]1O` had an IC50 in [15] of 0.018 µM. The EC>90 in [16] came out at 1 nM.
`COc1cc(-c2[o+]c3cc(O[C@@H]4O[C@H](CO)[C@@H](O)[C@H](O)[C@H]4O)cc(O)c3cc2O[C@@H]2O[C@H](CO)[C@@H](O)[C@H](O)[C@H]2O)cc(OC)c1O`: in [17], the Activity was 60%.
Usually Kd stands for the free concentration of one partner at which half of the binding sites on the other are occupied at equilibrium, for simple one-to-one binding. On to `C[C@H]1[C@H](Oc2ccc(/C=N/NC(=O)COc3ccccc3Cl)cc2)O[C@H](CO)[C@@H](O)[C@@H]1O`, for which the Kd in assay [18] was 400 µM.
Consider `C[C@@H]1O[C@@H](O[C@H]2[C@H](Oc3cc(O)c4c(c3)O[C@H](c3ccc(O)cc3)CC4=O)O[C@H](CO)[C@@H](O)[C@@H]2O)[C@H](O)[C@H](O)[C@H]1O` [NARINGIN], for which the MIC50 in [19] and in assay [22] was 9800 µg/mL (≈ 16900 µM) throughout. The Activity in assay [20] amounted to 49.5%; in assay [21], 73.76%; in [23], 89.35%.
In the case of `CC(=O)O[C@@H]1[C@@H](O)[C@@H](O)[C@H](O[C@@H]2[C@@H](O)[C@H](OCCc3ccc(O)c(O)c3)O[C@H](CO)[C@H]2OC(=O)/C=C/c2ccc(O)c(O)c2)O[C@H]1C`, the Activity in assay [24] stood at 77%.

The values above are taken from ChEMBL document CHEMBL5137057, “Small Carbohydrate Derivatives as Potent Antibiofilm Agents” (J Med Chem, 2022).
